According to ChEMBL document CHEMBL5620344, “Discovery of novel 5-(2-hydroxyphenyl)-2-phthalide-3(3H)-pyrazolones as balanced multifunctional agents against Alzheimer's disease” (Eur J Med Chem, 2023):

Assays:
[1] = molecular target: T1, Amine oxidase [flavin-containing] A (Homo sapiens, UniProt P21397); test: Inhibition of human recombinant MAO-A
T1 sequence (P21397 whole entry): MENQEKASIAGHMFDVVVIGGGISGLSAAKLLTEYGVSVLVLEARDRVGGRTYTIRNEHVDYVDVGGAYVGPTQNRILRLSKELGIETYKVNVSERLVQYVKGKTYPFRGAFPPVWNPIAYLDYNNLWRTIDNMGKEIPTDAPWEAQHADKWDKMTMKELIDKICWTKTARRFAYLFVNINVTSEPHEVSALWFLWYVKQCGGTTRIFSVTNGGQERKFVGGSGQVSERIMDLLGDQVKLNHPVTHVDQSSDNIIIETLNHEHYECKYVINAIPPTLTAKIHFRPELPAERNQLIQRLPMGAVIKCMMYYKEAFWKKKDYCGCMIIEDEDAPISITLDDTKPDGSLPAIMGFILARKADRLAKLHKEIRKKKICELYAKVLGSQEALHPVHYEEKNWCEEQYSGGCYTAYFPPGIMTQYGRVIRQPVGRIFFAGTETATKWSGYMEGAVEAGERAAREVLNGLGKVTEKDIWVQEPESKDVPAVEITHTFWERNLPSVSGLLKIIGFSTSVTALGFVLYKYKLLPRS

[2] = molecular target: T2, Amine oxidase [flavin-containing] B (Homo sapiens, UniProt P27338); test: Inhibition of human recombinant MAO-B
T2 sequence (P27338 whole entry): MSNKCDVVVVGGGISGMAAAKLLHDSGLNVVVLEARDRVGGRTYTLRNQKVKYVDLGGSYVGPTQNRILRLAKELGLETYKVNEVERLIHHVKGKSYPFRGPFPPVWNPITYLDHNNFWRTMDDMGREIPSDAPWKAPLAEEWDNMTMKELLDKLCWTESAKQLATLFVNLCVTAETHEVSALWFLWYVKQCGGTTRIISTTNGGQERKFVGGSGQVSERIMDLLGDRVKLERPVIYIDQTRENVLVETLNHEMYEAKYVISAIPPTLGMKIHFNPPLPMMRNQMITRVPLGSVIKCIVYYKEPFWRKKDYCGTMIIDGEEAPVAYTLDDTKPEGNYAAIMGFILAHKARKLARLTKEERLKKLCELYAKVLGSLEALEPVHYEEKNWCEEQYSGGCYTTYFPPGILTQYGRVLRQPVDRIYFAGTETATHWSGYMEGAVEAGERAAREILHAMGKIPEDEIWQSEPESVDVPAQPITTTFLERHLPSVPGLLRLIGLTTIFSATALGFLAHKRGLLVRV

[3] = molecular target: Amyloid-beta precursor protein (Homo sapiens) (UniProt P05067); test: Inhibition of Cu2+-induced amyloid beta (1 to 42) (unknown origin) aggregation at 25 uM by ThT fluorescence assay
Amyloid-beta precursor protein (Homo sapiens), sequence (P05067 whole entry): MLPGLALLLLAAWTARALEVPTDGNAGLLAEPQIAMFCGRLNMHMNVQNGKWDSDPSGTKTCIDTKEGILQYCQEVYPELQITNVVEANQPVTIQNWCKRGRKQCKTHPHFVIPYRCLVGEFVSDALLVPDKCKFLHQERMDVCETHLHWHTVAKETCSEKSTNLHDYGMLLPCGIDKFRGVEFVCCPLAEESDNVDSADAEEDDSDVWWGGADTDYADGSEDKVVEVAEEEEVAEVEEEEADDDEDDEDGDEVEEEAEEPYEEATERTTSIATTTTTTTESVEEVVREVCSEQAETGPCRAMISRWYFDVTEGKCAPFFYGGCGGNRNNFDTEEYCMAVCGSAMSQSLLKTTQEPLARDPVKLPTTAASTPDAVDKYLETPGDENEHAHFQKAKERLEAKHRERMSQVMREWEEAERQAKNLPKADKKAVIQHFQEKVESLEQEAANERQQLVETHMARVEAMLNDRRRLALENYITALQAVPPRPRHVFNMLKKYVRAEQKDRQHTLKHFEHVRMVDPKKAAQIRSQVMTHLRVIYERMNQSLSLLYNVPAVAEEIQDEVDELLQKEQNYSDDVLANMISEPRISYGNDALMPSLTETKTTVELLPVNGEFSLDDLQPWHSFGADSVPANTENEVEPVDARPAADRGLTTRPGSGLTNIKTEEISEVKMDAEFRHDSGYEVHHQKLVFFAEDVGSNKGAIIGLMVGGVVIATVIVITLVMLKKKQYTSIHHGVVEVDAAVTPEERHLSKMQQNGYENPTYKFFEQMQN

[4] = molecular target: T3, MAO-A (Homo sapiens, UniProt P21397); test: Inhibition of human recombinant MAO-A at 10 uM
T3 sequence (P21397 whole entry): T1 sequence (P21397 whole entry)

[5] = molecular target: Amyloid-beta precursor protein (Homo sapiens) (UniProt P05067); test: Disaggregation of self-induced amyloid beta (1 to 42) (unknown origin) preformed fibrils at 25 uM by ThT fluorescence assay
[6] = molecular target: Amyloid-beta precursor protein (Homo sapiens) (UniProt P05067); test: Disaggregation of Cu2+-induced amyloid beta (1 to 42) (unknown origin) preformed fibrils at 25 uM by ThT fluorescence assay
[7] = Antioxidant activity assessed as trolox equivalent of ORAC radical scavenging activity by ORAC-FL assay relative to trolox; type: functional
[8] = molecular target: Amyloid-beta precursor protein (Homo sapiens) (UniProt P05067); test: Inhibition of self-induced amyloid beta (1 to 42) (unknown origin) aggregation at 25 uM by ThT fluorescence assay
[9] = Selectivity index, ratio of IC50 for human recombinant MAO-A to IC50 for human recombinant MAO-B

IC50 [2] [µM] | inhibition [3] [%] | Activity [5] [%] | Activity [6] [%] | inhibition [8] [%] | Ratio IC50 [9] | Activity ([5]; tested as the 2H-labelled form) [%] | inhibition ([8]; tested as the 2H-labelled form) [%] | Structure (SMILES) | IC50 [1] [µM] | inhibition at 10 µM [4] [%] | Ratio [7] [equiv]
7.62 | 58.8 | 49.9 | 74.6 | 85.1 | > 1.3 | – | – | CCCCC1OC(=O)c2cc(N3N=C(c4cc(Cl)ccc4O)CC3=O)ccc21 (configuration not stated) | > 10 | 14.1 | 1.32
6.34 | 31.8 | 43.7 | 55 | 44.6 | > 1.6 | – | – | CCCCCCC1OC(=O)c2cc(N3N=C(c4cc(F)ccc4O)CC3=O)ccc21 (configuration not stated) | > 10 | 10.7 | 1.1
12.3 | 69.4 | 54.1 | 66 | 65.6 | > 0.8 | – | – | CCCCC1OC(=O)c2cc(N3N=C(c4ccc(Br)cc4O)CC3=O)ccc21 (configuration not stated) | > 10 | 14.8 | 1.22
10.5 | 50.6 | 67.4 | 62.8 | 75.5 | > 1 | – | – | CCCCC1OC(=O)c2cc(N3N=C(c4cccc(Br)c4O)CC3=O)ccc21 (configuration not stated) | > 10 | 13 | 1.15
5.53 | 70.3 | 78.3 | 77.7 | 55.1 | > 1.8 | – | – | CCCCC1OC(=O)c2cc(N3N=C(c4cc(Cl)cc(Cl)c4O)CC3=O)ccc21 (configuration not stated) | > 10 | 1.11 | 0.97
11.4 | 44.1 | 68.6 | 71.7 | 57.8 | > 0.9 | – | – | CCCCCCCC1OC(=O)c2cc(N3N=C(c4ccccc4O)CC3=O)ccc21 (configuration not stated) | > 10 | 14.5 | 1.38
> 10 | 75.9 | 42.6 | 54.6 | 67 | – | – | – | CCCCC1OC(=O)c2cc(N3N=C(c4cccc(F)c4O)CC3=O)ccc21 (configuration not stated) | > 10 | 7.96 | 1.07
> 10 | 75.3 | 65 | 76.4 | 70.9 | – | – | – | CCCCC1OC(=O)c2cc(N3N=C(c4ccccc4O)CC3=O)ccc21 (configuration not stated) | > 10 | 25.6 | 1.55
0.56 | 44.7 | 41.1 | 42.8 | 46.1 | > 17.9 | – | – | O=C1OCc2ccc(N3N=C(c4cc(F)ccc4O)CC3=O)cc21 | > 10 | 24.2 | 1.25
> 10 | – | 8.11 | – | 19.3 | – | – | – | CCCCC1OC(=O)c2cc(-n3nc(-c4ccccc4O)cc3C)ccc21 (configuration not stated) | > 10 | 20.4 | 1.38
6.5 | 85.1 | 87.1 | 86.8 | 65.2 | > 1.5 | – | – | CCCCC1OC(=O)c2cc(N3N=C(c4cc(Cl)cc(Br)c4O)CC3=O)ccc21 (configuration not stated) | > 10 | 8.09 | 1.1
– | – | – | – | – | 1.6 | 28.6 | 71.5 | CC1=NN(c2ccc3c(c2)C(=O)OC3)C(=O)C1 | – | – | 1.18
2.87 | 63.1 | 31.1 | 60.7 | 45.4 | > 3.5 | – | – | CCCCCCCC1OC(=O)c2cc(N3N=C(c4cc(OC)ccc4O)CC3=O)ccc21 (configuration not stated) | > 10 | 8.73 | 1.82
– | – | – | – | – | – | – | – | C[C@H](NCc1ccc(OCc2cccc(F)c2)cc1)C(N)=O [SAFINAMIDE] | – | 9.67 | –
3.88 | 71 | 59.9 | 69.1 | 78 | > 2.6 | – | – | CCCCC1OC(=O)c2cc(N3N=C(c4cc(OC)ccc4O)CC3=O)ccc21 (configuration not stated) | > 10 | 2.97 | 2.28
9.25 | 64.1 | 44.8 | 55 | 69.3 | > 1.08 | – | – | CCCCC1OC(=O)c2cc(N3N=C(c4cc(Br)ccc4O)CC3=O)ccc21 (configuration not stated) | > 10 | 10.9 | 1.38
3.79 | 43.8 | 59.5 | 66.7 | 50.3 | > 2.6 | – | – | CCCCCCC1OC(=O)c2cc(N3N=C(c4ccccc4O)CC3=O)ccc21 (configuration not stated) | > 10 | 21.7 | 1.33
6.2 | 63.8 | 51 | 55.7 | 60.6 | > 1.6 | – | – | CCCCC1OC(=O)c2cc(N3N=C(c4cc(N(C)C)ccc4O)CC3=O)ccc21 (configuration not stated) | > 10 | 1.6 | 2.58
4.36 | – | – | – | – | – | – | – | [2H]C1OC(=O)c2cc(N3N=C(C)CC3=O)ccc21 (configuration not stated) | 6.78 | – | –
8.32 | 52.7 | 76.3 | 73.8 | 54.6 | > 1.2 | – | – | CCCCCCC1OC(=O)c2cc(N3N=C(c4cc(Cl)ccc4O)CC3=O)ccc21 (configuration not stated) | > 10 | 27.8 | 1.18
0.9 | – | 8.27 | – | 21.3 | > 11.1 | – | – | O=C1OCc2ccc(N3N=C(c4cccc(F)c4O)CC3=O)cc21 | > 10 | 21 | 1.1
7.35 | 61.2 | 24.7 | – | 54.4 | > 1.4 | – | – | CCCCC1OC(=O)c2cc(N3N=C(c4cc(C)ccc4O)CC3=O)ccc21 (configuration not stated) | > 10 | 5.2 | 1.6
8.05 | 66.2 | 56.5 | 65.6 | 68 | > 1.2 | – | – | CCCCC1OC(=O)c2cc(N3N=C(c4ccc(Cl)cc4O)CC3=O)ccc21 (configuration not stated) | > 10 | 5.51 | 1.29
0.22 | – | 28.1 | – | 33.5 | > 45.5 | – | – | O=C1OCc2ccc(N3N=C(c4ccccc4O)CC3=O)cc21 | > 10 | 23.2 | 1.38
5.07 | – | 7.68 | – | 24.9 | > 2 | – | – | CCCCC1OC(=O)c2cc(N3N=C(c4ccc(N(C)C)cc4O)CC3=O)ccc21 (configuration not stated) | > 10 | 9.51 | 1.84
9.26 | 66.1 | 57.2 | 61.8 | 68.8 | > 1.1 | – | – | CCCCC1OC(=O)c2cc(N3N=C(c4cc([N+](=O)[O-])ccc4O)CC3=O)ccc21 (configuration not stated) | > 10 | 8.48 | 0.73
– | – | 35.8 | – | – | – | – | – | COc1cc(/C=C/C(=O)CC(=O)/C=C/c2ccc(O)c(OC)c2)ccc1O | – | – | –
3.45 | 60.3 | 52.7 | 59.5 | 66.6 | > 2.9 | – | – | CCCCC1OC(=O)c2cc(N3N=C(c4cc(F)ccc4O)CC3=O)ccc21 (configuration not stated) | > 10 | 13.3 | 1.21
